Results from patent US8623853B2, “Treatment of cancers characterized by chromosomal rearrangement of the NUT gene” (The Brigham and Women's Hospital, Inc., priority 2008, dated 2014).

Assays:
NMC cell lines = experiment: SAHA treatment of five NMC cell lines; assay type: cell-based; conditions: pharmacologic doses
NMC (TC797) cells = experiment: High-content 384-well assay of proliferation, histone acetylation and keratin expression adapted to NMC culture; assay type: cell-based
Method: A cell based approach was developed for identifying potent and selective HDAC inhibitors. Nuclear acetylation correlates with inhibition of class I deacetylases such as HDAC1 and HDAC2. An automated epiflourescent assay was therefore developed which is measures histone hyperacetylation. Cells were seeded in 384-well plate format (500 cells/well) and treated with compound. They were then fixed and stained with: a) Hoechst (nuclei); b) primary anti-AcHistone polyclonal Ab; c) anti-Keratin monoclonal antibody; and d) compatible flurophore-conjugated secondary antibodies. After automated image acquisition, a custom analysis program was applied that identifies and masks cells based on nuclear intensity (Hoechst) and then derives quantitative fluorescent data from the FITC (AcHistone) image. Subsequent secondary masks were generated using cytosolic intensity.
We have performed studies of HDAC inhibitor effects on NMC cells in culture using an adaptation of the assay described above. […] In a first attempt at multiplexed detection and quantification of effects on cell proliferation, histone acetylation, and keratin protein expression, we have witnessed clear, dose-response activity of SAHA in the pharmacologically achievable range (Cmax approximately 2 μM).

[1] = pharmacologically achievable range; cited from earlier work
NMC cells = experiment: TSA dose- and time-ranging studies in cultured NMC cells (immunofluorescence, bright-field microscopy, keratin immunohistochemistry); assay type: cell-based
Method: Studies aimed at testing the hypothesis of HDAC inhibitor therapy in NMC have been conducted using trichostatin A (TSA), and vorinostat (SAHA, Zolinza®). Both of these compounds are regarded as non-selective for class I and II deacetylases and bind HDAC proteins by chelating the active site zinc atom with a hydroxamic acid feature. NMC cells cultured in vitro were treated with TSA in dose- and time-ranging studies. […] With further drug exposure, a differentiation phenotype was observed by bright-field microscopy and by immunohistochemistry for the epithelial differentiation-associated protein, keratin.

| Compound | differentiation (NMC cell lines) | growth (NMC cell lines) | histone acetylation (NMC (TC797) cells; dose-ranging, qualitative in images) | cell proliferation (NMC (TC797) cells; multiplexed detection) | keratin protein content (NMC (TC797) cells; multiplexed detection) | Cmax [1] | differentiation by brightfield microscopy (NMC cells; TSA 25 nM, within 24 hours) | distribution of BRD-NUT and acetylation marks (NMC cells; immunofluorescence microscopy) | histone acetylation (NMC cells; immunofluorescence microscopy, dose- and time-ranging) | cytoplasmic keratin staining (NMC cells; immunohistochemistry) |
| --- | --- | --- | --- | --- | --- | --- | --- | --- | --- | --- |
| O=C(CCCCCCC(=O)Nc1ccccc1)NO [SAHA, suberoylanilide hydroxamic acid] | resulted in differentiation | arrested growth | increased histone acetylation | reduction in cell proliferation | induction of increased keratin protein content | ~2000 nM |  |  |  |  |
| CC(/C=C/C(=O)NO)=C\[C@@H](C)C(=O)c1ccc(N(C)C)cc1 [TSA, trichostatin A] |  |  |  |  |  |  | rapidly differentiate | redistribution of both BRD-NUT and acetylation marks from nuclear speckles to a diffuse pattern | increase in histone acetylation with increasing dose and time of exposure | increases in cytoplasmic keratin staining |
